Laboratory results as given in ChEMBL document CHEMBL1201862, “PubChem BioAssay data set” (2004).
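Cells were grown in 96-well plates and exposed to each compound for 48 hours at five concentrations; endpoints were interpolated linearly between bracketing concentrations, or set to the highest concentration if not reached. Here, GI50 denotes the concentration required for 50% inhibition of growth.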 Calls of active or inactive are those of the source. Cut-off read from the data, not from the text of the source: active = GI50 up to about 1.1 µM and inactive = higher.

What was measured:
Test in all cases: NCI-60 cell line screen, 48 h
[1] = system: DLD-1
[2] = system: LXFL 529
[3] = system: SNB-78
[4] = system: XF498
[5] = system: DMS-114
[6] = system: DMS-273
[7] = system: HOP-18
[8] = system: M19-MEL
[9] = system: RXF 631

Measured: GI50

COc1ccc(C[C@@H]2Cc3cc(OC)c(OC)cc3CN2C)cc1
inactive: [1] > 100 µM | [2] > 100 µM | [3] > 100 µM | [4] 53.5 µM

CCOc1ccc(/N=N/c2ccc3oc(=O)c(/C(C)=N/NC(=O)CC(=O)Nc4cccc(OC)c4)cc3c2)cc1
inactive: [1] 13.8 µM | [5] 14.3 µM | [6] 24.8 µM | [7] 17.1 µM | [2] 11 µM | [8] 23.8 µM | [3] 23.6 µM | [4] 17.5 µM

O=S(=O)(OI(OI(OS(=O)(=O)C(F)(F)F)c1ccccc1)c1ccccc1)C(F)(F)F
inactive: [1] 58.9 µM | [5] 5.18 µM | [6] 23.7 µM | [2] 26.1 µM | [8] 40.7 µM | [3] 50.6 µM

Cc1ccc(C2=CC(=O)c3ccccc3C2=O)n1-c1ccccc1
inactive: [1] > 100 µM | [5] 24.6 µM | [6] > 100 µM | [7] > 100 µM | [2] 72.4 µM | [8] > 100 µM | [3] > 100 µM | [4] 48.1 µM

COC(=O)/C(C#N)=C1\CCC(C(=O)OC)N1C (configuration not stated)
inactive: [1] > 100 µM | [5] > 100 µM | [6] > 100 µM | [8] > 100 µM | [9] > 100 µM | [3] > 100 µM | [4] > 100 µM

CC(/C(=N/NC(=O)C(N)=O)c1c(Cl)ccc(Cl)c1O)C1(O)C(=O)Nc2ccccc21 (configuration not stated)
inactive: [1] 35.3 µM | [5] 34.4 µM | [6] 27.4 µM | [7] 34.8 µM | [2] 32.9 µM | [8] 40.4 µM | [9] 32.1 µM | [3] > 100 µM

O=c1c2cc(Br)ccc2nc(-c2ccccc2Cl)n1NCC1(O)OCC(O)C(O)C1O (configuration not stated)
inactive: [5] 75.9 µM | [6] > 100 µM | [2] 82.8 µM | [8] > 100 µM | [3] > 100 µM

Cc1cccc(N2C(=O)C(=O)C(c3nc4ccccc4s3)/C(=N/NC(=S)NN)C2=O)c1C (configuration not stated)
inactive: [5] > 100 µM | [6] > 100 µM | [2] > 100 µM | [8] > 100 µM | [9] > 100 µM | [3] > 100 µM | [4] > 100 µM

COc1cc(OC)c(C2CC=Cc3c(OC)cc(OC)c(OC)c32)cc1OC (configuration not stated)
inactive: [1] > 100 µM | [5] > 100 µM | [6] > 100 µM | [7] > 100 µM | [2] > 100 µM | [8] > 100 µM | [3] > 100 µM | [4] > 100 µM

CN(C)/N=N/c1ccc(S(N)(=O)=O)cc1
inactive: [1] > 100 µM | [5] > 100 µM | [6] > 100 µM | [7] > 100 µM | [8] > 100 µM | [4] > 100 µM

COc1c(C(=O)c2ccc([N+](=O)[O-])cc2)cc(C(C)(C)C)cc1C(C)(C)C
inactive: [1] 54 µM | [5] 22.1 µM | [6] 30.2 µM | [7] > 100 µM | [2] 31.6 µM | [8] 30.1 µM | [3] 46.6 µM | [4] 22.2 µM

COc1cc2ccn3c4cc(OC)c(OC)cc4cc3c2cc1OC
inactive: [1] > 100 µM | [5] 50.6 µM | [2] 78.7 µM | [8] > 100 µM | [3] > 100 µM | [4] 7.16 µM

COc1cc(OC(=O)c2ccccc2)cc2c1C(=O)C=CC2=O
inactive: [1] 15.4 µM | [5] 10.9 µM | [6] 21.8 µM | [7] 16.6 µM | [2] 12.7 µM | [8] 11 µM | [9] 20 µM | [3] 20.5 µM | [4] 17.6 µM

O=[N+]([O-])c1cccc(C2ON2C2CCCCC2)c1 (configuration not stated)
inactive: [1] 12 µM | [5] 19.1 µM | [6] 18.4 µM | [7] 30.8 µM | [2] 20.7 µM | [8] 19.6 µM | [3] 27.4 µM

CCOC(=O)/C(C#N)=C\C=C1/C=CN=C2NCCN21
inactive: [1] > 100 µM | [5] > 100 µM | [6] > 100 µM | [7] > 100 µM | [2] > 100 µM | [8] > 100 µM | [3] > 100 µM | [4] > 100 µM

Cc1cccc(C)c1CO
inactive: [1] > 100 µM | [5] > 100 µM | [6] > 100 µM | [2] > 100 µM | [8] > 100 µM | [9] > 100 µM | [3] > 100 µM | [4] > 100 µM

C(=N\Nc1ccccc1)/c1nc2ccccc2nc1/C=N/Nc1ccccc1
inactive: [1] 11.3 µM | [2] 11 µM | [8] 20.7 µM | [9] 13.6 µM | [3] 20.7 µM

Cc1cc2c(cc1C)NC(=O)C(NC(=O)/C=C/c1ccccc1)C=N2 (configuration not stated)
inactive: [1] 28.2 µM | [5] 12.3 µM | [6] 29 µM | [7] 37.5 µM | [2] 27.9 µM | [8] 33.3 µM | [3] 66.7 µM | [4] 28 µM

COc1cc(C2C(C(=O)Nc3ccccc3)=C(C)NC(C)=C2C(=O)Nc2ccccc2)ccc1O
inactive: [1] 29.1 µM | [5] 42 µM | [7] 99.3 µM | [2] 24.3 µM | [8] 36.2 µM | [3] 53.5 µM | [4] 34.2 µM

O=C1C=CC(=O)c2cc(Sc3ccccc3)c(=O)c(Sc3ccccc3)cc21
inactive: [1] 56.4 µM | [5] 22.2 µM | [6] > 100 µM | [7] 71.8 µM | [2] 26.1 µM | [8] 48.5 µM | [4] 86.3 µM

CCCCCC/C(CC(=O)CCC(=O)NCCc1ccccc1)=N\Nc1ccc([N+](=O)[O-])cc1[N+](=O)[O-]
inactive: [1] 63.7 µM | [5] 20 µM | [6] > 100 µM | [7] 59.8 µM | [2] 49.3 µM | [8] 54.5 µM | [9] 64.6 µM | [3] > 100 µM

COC(=O)C1=C(O)C(O)=C(C(=O)OC)CC1
inactive: [1] > 100 µM | [5] > 100 µM | [6] > 100 µM | [7] > 100 µM | [2] > 100 µM | [8] > 100 µM | [3] > 100 µM | [4] > 100 µM

CN(C)c1ccc(-c2cc(O)c3cc4c(cc3n2)OCO4)cc1
inactive: [1] > 100 µM | [5] > 100 µM | [6] > 100 µM | [2] > 100 µM | [8] > 100 µM | [9] > 100 µM | [4] > 100 µM

C=CCC1(CC)C(=O)NC(=O)NC1=O [ETALLOBARBITAL]
inactive: [6] > 100 µM | [2] > 100 µM | [8] > 100 µM | [3] > 100 µM
